Measurements reported in patent publication US11472808B2, “Substituted pyrrolo[1,2-c]pyrimidines as hepatitis B antiviral agents” (Enanta Pharmaceuticals, Inc., priority 2019, dated 2022).
Read-outs that look alike come from different tables or passages of the source.

How the values were obtained:
[1] = Compound toxicity, ATPLite total ATP levels; assay type: cell-based; conditions: human, HepG2 cells; concentration reducing total ATP levels by 50% relative to no drug controls; ATPLite three days after compound addition
Method: Compound toxicity is evaluated by seeding cells at 15,000 cells/well and treating with compound as described above.

[2] = system: HBV; experiment: HepAD38 anti-HBV assay: reduction of viral product accumulation (virion DNA qPCR, HBsAg/HBeAg ELISA); assay type: cell-based; conditions: Hepatitis B virus
Outline: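 EC50 values reflect 50% reduction, relative to untreated controls, in virion DNA (qPCR) or HBsAg/HBeAg (ELISA) from lysates or supernatants. Washed HepAD38 cells without tetracycline were exposed to compound for 5 days. In the 8-day variant, medium and compound were renewed on days 2 and 5.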

[3] = 120 h, HepAD38 cells, concentration reducing viral product accumulation by 50% relative to no drug controls, harvest five days after compound addition, read-out: HepAD38 EC50

Compound | CC50 at 3 days [1] | EC50 [2, 3] | EC50 ([2]; HePAD38, 120 h, read-out: HepAD38 EC50 (μM))
C[C@]1(O)CC[C@H](c2ccc(S(=O)(=O)N[C@H]3CC4=C(c5ccn(C(F)F)n5)[C@H](c5ccc(F)cc5Cl)N=C(c5nccs5)N4C3)cc2)CC1 [Example 411] | 10000 to 25000 nM | < 0.1 µM | –
O=S(=O)(N[C@H]1CC2=C(c3ccn(C(F)F)n3)[C@H](c3ccc(F)cc3Cl)N=C(c3nccs3)N2C1)N[C@H](c1ccccn1)C1CC1 [Example 353] | > 25000 nM | < 0.1 µM | –
O=S(=O)(N[C@H]1CC2=C(c3ccn(C(F)F)n3)[C@H](c3ccc(F)cc3Cl)N=C(c3nccs3)N2C1)N1CCC[C@@H](O)C1 [Example 94] | > 25000 nM | < 0.1 µM | –
O=S(=O)(N[C@H]1CC2=C(c3ccn(C(F)F)n3)[C@H](c3ccc(F)cc3Cl)N=C(c3nccs3)N2C1)[C@H]1C[C@](O)(c2ccccn2)C1 [Example 371] | 10000 to 25000 nM | < 0.1 µM | –
O=S(=O)(NCCc1ccccn1)N[C@H]1CC2=C(c3ccn(C(F)F)n3)[C@H](c3ccc(F)cc3Cl)N=C(c3nccs3)N2C1 [Example 309] | > 25000 nM | < 0.1 µM | –
O=S(=O)(N[C@H]1CC2=C(c3ccn(C(F)F)n3)[C@H](c3ccc(F)cc3Cl)N=C(c3nccs3)N2C1)c1ccc(-c2cccnc2)cn1 [Example 403] | > 25000 nM | < 0.1 µM | –
O=S(=O)(N[C@H]1CC2=C(c3ccn(C(F)F)n3)[C@H](c3ccc(F)cc3Cl)N=C(c3nccs3)N2C1)c1ccccc1 [Example 367] | > 25000 nM | < 0.1 µM | –
O=C(O)[C@H]1CC[C@H](c2ccc(S(=O)(=O)N[C@H]3CC4=C(c5ccn(C(F)F)n5)[C@H](c5ccc(F)cc5Cl)N=C(c5nccs5)N4C3)cc2)CC1 [Example 426] | > 25000 nM | < 0.1 µM | –
O=S(=O)(N[C@H]1CC2=C(c3ccn(C(F)F)n3)[C@H](c3ccc(F)cc3Cl)N=C(c3nccs3)N2C1)c1cnn(S(=O)(=O)c2cn[nH]c2)c1 [Example 21] | 10000 to 25000 nM | < 0.1 µM | –
O=S(=O)(N[C@H]1CC2=C(c3ccn(C(F)F)n3)[C@H](c3ccc(F)cc3Cl)N=C(c3nccs3)N2C1)c1ccc(F)cc1F [Example 388] | > 25000 nM | < 0.1 µM | –
O=S(=O)(N[C@H]1CC2=C(c3ccn(C(F)F)n3)[C@H](c3ccc(F)cc3Cl)N=C(c3nccs3)N2C1)[C@H]1CC[C@@H](O)CC1 [Example 99] | > 25000 nM | < 0.1 µM | –
O=S(=O)(NCCCO)N[C@H]1CC2=C(c3ccn(C(F)F)n3)[C@H](c3ccc(F)cc3Cl)N=C(c3nccs3)N2C1 [Example 79] | > 25000 nM | < 0.1 µM | –
O=S(=O)(N[C@H]1CC2=C(c3ccn(C(F)F)n3)[C@H](c3ccc(F)cc3Cl)N=C(c3nccs3)N2C1)N[C@H]1CC[C@H](O)CC1 [Example 155] | > 25000 nM | < 0.1 µM | –
O=C1NC[C@@H](CNC(=O)c2cccc(S(=O)(=O)N[C@H]3CC4=C(c5ccn(C(F)F)n5)[C@H](c5ccc(F)cc5Cl)N=C(c5nccs5)N4C3)c2)O1 [Example 420] | > 25000 nM | < 0.1 µM | –
O=S(=O)(N[C@H]1CC2=C(c3ccn(C(F)F)n3)[C@H](c3ccc(F)cc3Cl)N=C(c3nccs3)N2C1)N1CCC(O)CC1 [Example 75] | > 25000 nM | < 0.1 µM | –
Cn1ccc(C2(O)CCN(S(=O)(=O)N[C@H]3CC4=C(c5ccn(C(F)F)n5)[C@H](c5ccc(F)cc5Cl)N=C(c5nccs5)N4C3)CC2)n1 [Example 304] | > 25000 nM | < 0.1 µM | –
O=C(N[C@H]1CC2=C(c3ccn(C(F)F)n3)[C@H](c3ccc(F)cc3Cl)N=C(c3nccs3)N2C1)c1nccs1 [Example 235] | > 25000 nM | < 0.1 µM | –
O=S(=O)(N[C@H]1CC2=C(c3ccn(C(F)F)n3)[C@H](c3ccc(F)cc3Cl)N=C(c3nccs3)N2C1)[C@H]1C[C@H](O)C1 [Example 370] | > 25000 nM | < 0.1 µM | –
O=S(=O)(N[C@H]1CC2=C(c3ccn(C(F)F)n3)[C@H](c3ccc(F)cc3Cl)N=C(c3nccs3)N2C1)c1ccc([C@H]2CC[C@H](O)CC2)cc1 [Example 381] | 10000 to 25000 nM | < 0.1 µM | –
Cc1ccc(S(=O)(=O)N[C@H]2CC3=C(c4ccn(C(F)F)n4)[C@H](c4ccc(F)cc4Cl)N=C(c4nccs4)N3C2)cn1 [Example 401] | > 25000 nM | < 0.1 µM | –
O=S(=O)(N[C@H]1CC2=C(c3ccn(C(F)F)n3)[C@H](c3ccc(F)cc3Cl)N=C(c3nccs3)N2C1)N1CCCC[C@@H]1C(F)(F)F [Example 301] | > 25000 nM | < 0.1 µM | –
O=S(=O)(N[C@H]1CC2=C(c3ccn(C(F)F)n3)[C@H](c3ccc(F)cc3Cl)N=C(c3nccs3)N2C1)c1ccc(C(O)c2ccccn2)cc1 (stereo partly drawn) [Example 334] | < 10000 nM | < 0.1 µM | –
N#CCC1(O)CC2=C(c3ccn(C(F)F)n3)[C@H](c3ccc(F)cc3Cl)N=C(c3nccs3)N2C1 (stereo partly drawn) [Example 140] | > 25000 nM | < 0.1 µM | –
CS(=O)(=O)c1cccc(S(=O)(=O)N[C@H]2CC3=C(c4ccn(C(F)F)n4)[C@H](c4ccc(F)cc4Cl)N=C(c4nccs4)N3C2)c1 [Example 336] | > 25000 nM | < 0.1 µM | –
O=C(N[C@H]1CC2=C(c3ccn(C(F)F)n3)[C@H](c3ccc(F)cc3Cl)N=C(c3nccs3)N2C1)c1ccccc1 [Example 213] | 10000 to 25000 nM | < 0.1 µM | –

Compound | CC50 at 3 days [1] | EC50 [2, 3] | EC50 ([2]; HePAD38, 120 h, read-out: HepAD38 EC50 (μM))
O=S(=O)(N[C@H]1CC2=C(c3ccn(C(F)F)n3)[C@H](c3ccc(F)cc3Cl)N=C(c3nccs3)N2C1)N1CC(O)(c2ccccn2)C1 [Example 269] | > 25000 nM | < 0.1 µM | –
Cn1ccc(S(=O)(=O)N[C@H]2CC3=C(c4ccn(C(F)F)n4)[C@H](c4ccc(F)cc4Cl)N=C(c4nccs4)N3C2)n1 [Example 394] | > 25000 nM | < 0.1 µM | –
CS(=O)(=O)C1CN(S(=O)(=O)N[C@H]2CC3=C(c4ccn(C(F)F)n4)[C@H](c4ccc(F)cc4Cl)N=C(c4nccs4)N3C2)C1 [Example 337] | > 25000 nM | < 0.1 µM | –
C=CCOC[C@@]1(O)CC2=C(c3ccn(C(F)F)n3)[C@H](c3ccc(F)cc3Cl)N=C(c3nccs3)N2C1 (single isomer, unassigned) [Example 109] | – | 0.1 to 0.4 µM | –
O=C(N[C@H]1CC2=C(c3ccn(C(F)F)n3)[C@H](c3ccc(F)cc3Cl)N=C(c3nccs3)N2C1)C1CCCCC1 [Example 239] | – | 0.1 to 0.4 µM | –
CS(=O)(=O)C[C@@]1(O)CC2=C(c3ccn(C(F)F)n3)[C@H](c3ccc(F)cc3Cl)N=C(c3nccs3)N2C1 [Example 144] | – | 0.1 to 0.4 µM | –
Fc1ccc([C@@H]2N=C(c3nccs3)N3C[C@@H](Nc4ccccn4)CC3=C2c2ccn(C(F)F)n2)c(Cl)c1 [Example 418] | – | 0.1 to 0.4 µM | –
O=S1(=O)CCCN1[C@H]1CC2=C(c3ccn(C(F)F)n3)[C@H](c3ccc(F)cc3Cl)N=C(c3nccs3)N2C1 [Example 375] | – | 0.1 to 0.4 µM | –
N#CC[C@@]1(F)CC2=C(c3ccn(C(F)F)n3)[C@H](c3ccc(F)cc3Cl)N=C(c3nccs3)N2C1 [Example 194] | – | 0.1 to 0.4 µM | –
C=CC(O)C1(F)CC2=C(c3ccn(C(F)F)n3)[C@H](c3ccc(F)cc3Cl)N=C(c3nccs3)N2C1 (stereo partly drawn) [Example 181] | – | 0.1 to 0.4 µM | –
C[C@H]1CN(S(=O)(=O)N[C@H]2CC3=C(c4ccn(C(F)F)n4)[C@H](c4ccc(F)cc4Cl)N=C(c4nccs4)N3C2)C[C@@H]1C [Example 300] | – | < 0.1 µM | –
O=C(O)c1cccc(S(=O)(=O)NC[C@]2(O)CC3=C(c4ccn(C(F)F)n4)[C@H](c4ccc(F)cc4Cl)N=C(c4nccs4)N3C2)c1 [Example 132] | – | > 0.4 µM | –
O=C(O)[C@H]1C[C@H](S(=O)(=O)N[C@H]2CC3=C(c4ccn(C(F)F)n4)[C@H](c4ccc(F)cc4Cl)N=C(c4nccs4)N3C2)C1 [Example 16] | – | > 0.4 µM | –
O=C(N[C@H]1CC2=C(c3ccn(C(F)F)n3)[C@H](c3ccc(F)cc3Cl)N=C(c3nccs3)N2C1)N1CCC(CO)CC1 [Example 216] | – | 0.1 to 0.4 µM | –
O=C(O)Cc1ccccc1S(=O)(=O)N[C@H]1CC2=C(c3ccn(C(F)F)n3)[C@H](c3ccc(F)cc3Cl)N=C(c3nccs3)N2C1 [Example 32] | – | 0.1 to 0.4 µM | –
COCCOC[C@]1(O)CC2=C(c3ccn(C(F)F)n3)[C@H](c3ccc(F)cc3Cl)N=C(c3nccs3)N2C1 [Example 113] | – | > 0.4 µM | –
CCOC(=O)Cc1ccccc1S(=O)(=O)N[C@H]1CC2=C(c3ccn(C(F)F)n3)[C@H](c3ccc(F)cc3Cl)N=C(c3nccs3)N2C1 [Example 30] | – | 0.1 to 0.4 µM | –
OC/C=C/[C@]1(F)CC2=C(c3ccn(C(F)F)n3)[C@H](c3ccc(F)cc3Cl)N=C(c3nccs3)N2C1 [Example 174] | – | 0.1 to 0.4 µM | –
O=C(O)[C@H]1C[C@@H](S(=O)(=O)N[C@H]2CC3=C(c4ccn(C(F)F)n4)[C@H](c4ccc(F)cc4Cl)N=C(c4nccs4)N3C2)C1 [Example 17] | – | 0.1 to 0.4 µM | –
O=Cc1cccc(S(=O)(=O)N[C@H]2CC3=C(c4ccn(C(F)F)n4)[C@H](c4ccc(F)cc4Cl)N=C(c4nccs4)N3C2)c1 [Example 333] | – | < 0.1 µM | –
O=C(O)c1ccc(S(=O)(=O)NCC2(F)CC3=C(c4ccn(C(F)F)n4)[C@H](c4ccc(F)cc4Cl)N=C(c4nccs4)N3C2)cc1 (stereo partly drawn) [Example 192] | – | > 0.4 µM | –
O=C(N[C@H]1CC2=C(c3ccn(C(F)F)n3)[C@H](c3ccc(F)cc3Cl)N=C(c3nccs3)N2C1)N1CCC(O)(c2ccccn2)CC1 [Example 243] | – | 0.1 to 0.4 µM | –
COC(=O)N1CCN(C(=O)N[C@H]2CC3=C(c4ccn(C(F)F)n4)[C@H](c4ccc(F)cc4Cl)N=C(c4nccs4)N3C2)CC1 [Example 221] | – | 0.1 to 0.4 µM | –
O=C(N[C@H]1CC2=C(c3ccn(C(F)F)n3)[C@H](c3ccc(F)cc3Cl)N=C(c3nccs3)N2C1)Oc1ccccc1 [Example 200] | – | – | > 0.4 µM
Fc1ccc([C@@H]2N=C(c3nccs3)N3C[C@@H](Nc4cccc(-c5ccccn5)c4)CC3=C2c2ccn(C(F)F)n2)c(Cl)c1 [Example 331] | – | 0.1 to 0.4 µM | –
